Test results reported in ChEMBL document CHEMBL1909046, “DrugMatrix in vitro pharmacology data”.

Legend:
[1] = DRUGMATRIX: Atrial Natriuretic Factor (ANF) radioligand binding (ligand: [125I] ANF (rat)); type: cell membranes, Cavia porcellus, Dunkin-Hartley, Adrenal gland, Membrane; conditions: Not Active = under 50% inhibition at 10 µM
Calcitonin receptor = target: T1, Calcitonin receptor (Homo sapiens, UniProt P30988); type: cell membranes, Membrane; conditions: t47d; note: in other assays of this panel Not Active means under 50% inhibition at 10 µM
T1 sequence (P30988 whole entry): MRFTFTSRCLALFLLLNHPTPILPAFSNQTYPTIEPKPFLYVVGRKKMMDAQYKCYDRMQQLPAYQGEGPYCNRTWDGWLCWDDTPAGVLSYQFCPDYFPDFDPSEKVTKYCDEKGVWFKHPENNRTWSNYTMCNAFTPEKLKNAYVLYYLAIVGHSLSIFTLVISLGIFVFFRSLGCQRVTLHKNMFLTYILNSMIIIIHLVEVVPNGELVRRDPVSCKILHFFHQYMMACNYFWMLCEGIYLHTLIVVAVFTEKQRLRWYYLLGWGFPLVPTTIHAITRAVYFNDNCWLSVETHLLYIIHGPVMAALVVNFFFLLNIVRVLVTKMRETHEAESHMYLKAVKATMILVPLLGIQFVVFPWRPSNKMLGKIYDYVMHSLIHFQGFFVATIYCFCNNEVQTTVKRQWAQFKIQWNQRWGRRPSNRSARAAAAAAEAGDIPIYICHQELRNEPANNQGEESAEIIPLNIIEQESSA

[2] = target: 5-hydroxytryptamine receptor 2B (Homo sapiens, UniProt P41595); type: cell membranes, CHO-K1, Membrane; conditions: cho-k1; note: in other assays of this panel Not Active means under 50% inhibition at 10 µM
Chain of 5-hydroxytryptamine receptor 2B (P41595 whole entry): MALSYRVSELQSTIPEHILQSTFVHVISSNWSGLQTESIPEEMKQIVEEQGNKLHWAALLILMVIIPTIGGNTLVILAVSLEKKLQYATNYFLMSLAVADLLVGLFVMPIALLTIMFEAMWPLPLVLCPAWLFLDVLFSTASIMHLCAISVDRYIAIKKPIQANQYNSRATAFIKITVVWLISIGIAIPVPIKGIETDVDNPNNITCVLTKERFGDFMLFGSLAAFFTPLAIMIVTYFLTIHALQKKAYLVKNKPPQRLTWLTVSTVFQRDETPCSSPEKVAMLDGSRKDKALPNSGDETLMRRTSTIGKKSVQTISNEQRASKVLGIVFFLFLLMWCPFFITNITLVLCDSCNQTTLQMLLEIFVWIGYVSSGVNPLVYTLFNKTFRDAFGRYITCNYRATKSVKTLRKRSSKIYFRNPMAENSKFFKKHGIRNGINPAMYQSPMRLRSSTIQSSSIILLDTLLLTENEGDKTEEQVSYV

Substance-P receptor = Substance-P receptor (Homo sapiens, UniProt P25103); type: cell membranes, CHO, Membrane; conditions: cho; note: in other assays of this panel Not Active means under 50% inhibition at 10 µM
Chain of Substance-P receptor (P25103 whole entry): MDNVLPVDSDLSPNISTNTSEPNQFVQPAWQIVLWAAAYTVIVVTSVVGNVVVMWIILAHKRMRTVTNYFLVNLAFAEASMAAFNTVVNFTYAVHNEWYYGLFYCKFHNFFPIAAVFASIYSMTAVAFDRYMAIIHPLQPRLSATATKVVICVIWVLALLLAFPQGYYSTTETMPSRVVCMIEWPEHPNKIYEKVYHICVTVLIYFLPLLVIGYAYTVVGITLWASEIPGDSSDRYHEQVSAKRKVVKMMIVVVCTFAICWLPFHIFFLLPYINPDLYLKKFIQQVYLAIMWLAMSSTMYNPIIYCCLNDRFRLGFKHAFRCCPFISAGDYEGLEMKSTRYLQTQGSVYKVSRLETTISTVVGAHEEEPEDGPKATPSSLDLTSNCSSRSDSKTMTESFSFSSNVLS

Substance-K receptor = target: T2, Substance-K receptor (Homo sapiens, UniProt P21452); type: cell membranes, CHO, Membrane; note: in other assays of this panel Not Active means under 50% inhibition at 10 µM
T2 sequence (P21452 whole entry): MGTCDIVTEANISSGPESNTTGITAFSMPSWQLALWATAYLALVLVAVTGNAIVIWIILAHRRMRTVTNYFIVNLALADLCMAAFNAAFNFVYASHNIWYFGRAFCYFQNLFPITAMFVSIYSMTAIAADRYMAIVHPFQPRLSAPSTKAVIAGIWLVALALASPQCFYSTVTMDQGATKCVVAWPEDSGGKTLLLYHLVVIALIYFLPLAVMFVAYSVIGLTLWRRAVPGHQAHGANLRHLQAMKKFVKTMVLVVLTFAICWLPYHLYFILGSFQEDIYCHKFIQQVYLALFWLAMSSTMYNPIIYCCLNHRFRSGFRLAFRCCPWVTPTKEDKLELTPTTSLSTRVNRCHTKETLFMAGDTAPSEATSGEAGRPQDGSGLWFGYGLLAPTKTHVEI

Carbonic anhydrase 2 = Carbonic anhydrase 2 (Homo sapiens, UniProt P00918); assay: DRUGMATRIX: Carbonic Anhydrase II enzyme inhibition (substrate: 4-Nitrophenyl acetate (4-NPA)); type: tissue-based, Erythrocyte; conditions: erythrocyte; Not Active = under 50% inhibition at 10 µM
[3] = target: T3, C-X-C chemokine receptor type 1 (Homo sapiens, UniProt P25024); note: in other assays of this panel Not Active means under 50% inhibition at 10 µM
T3 sequence (P25024 whole entry): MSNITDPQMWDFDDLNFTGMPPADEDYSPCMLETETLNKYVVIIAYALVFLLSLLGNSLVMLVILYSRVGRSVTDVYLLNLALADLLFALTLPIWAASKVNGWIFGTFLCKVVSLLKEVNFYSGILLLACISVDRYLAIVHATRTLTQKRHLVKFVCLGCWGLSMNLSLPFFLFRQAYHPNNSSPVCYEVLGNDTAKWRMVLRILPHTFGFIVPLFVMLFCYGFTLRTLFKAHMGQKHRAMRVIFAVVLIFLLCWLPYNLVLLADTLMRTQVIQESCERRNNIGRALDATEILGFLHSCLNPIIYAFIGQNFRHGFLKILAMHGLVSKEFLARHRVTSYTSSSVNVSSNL

[4] = DRUGMATRIX: Glutamate, AMPA radioligand binding (ligand: [3H] AMPA); type: cell membranes, Rattus norvegicus, Wistar, Cerebral cortex, Membrane; conditions: Not Active = under 50% inhibition at 10 µM
[5] = DRUGMATRIX: Glutamate, NMDA, Agonism radioligand binding (ligand: [3H] CGP-39653); type: cell membranes, Rattus norvegicus, Wistar, Cerebral cortex, Membrane; conditions: Not Active = under 50% inhibition at 10 µM
[6] = DRUGMATRIX: Glutamate, NMDA, Phencyclidine radioligand binding (ligand: [3H] TCP); type: cell membranes, Rattus norvegicus, Wistar, Cerebral cortex, Membrane; conditions: Not Active = under 50% inhibition at 10 µM
[7] = target: T4, Cysteinyl leukotriene receptor 1 (Homo sapiens, UniProt Q9Y271); type: cell membranes, CHO-K1, Membrane; conditions: cho-k1; note: in other assays of this panel Not Active means under 50% inhibition at 10 µM
T4 sequence (Q9Y271 whole entry): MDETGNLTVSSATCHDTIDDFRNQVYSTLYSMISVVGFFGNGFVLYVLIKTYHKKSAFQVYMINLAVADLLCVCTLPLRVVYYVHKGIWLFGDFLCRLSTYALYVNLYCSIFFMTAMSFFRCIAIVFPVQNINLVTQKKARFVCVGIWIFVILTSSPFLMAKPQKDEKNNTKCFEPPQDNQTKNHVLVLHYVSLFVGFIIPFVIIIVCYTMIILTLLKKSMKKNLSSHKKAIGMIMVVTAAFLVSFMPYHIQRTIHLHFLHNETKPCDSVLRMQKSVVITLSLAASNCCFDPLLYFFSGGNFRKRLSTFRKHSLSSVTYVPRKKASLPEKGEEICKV

Neutrophil elastase = target: T5, Neutrophil elastase (Homo sapiens, UniProt P08246); type: tissue-based
T5 sequence (P08246 whole entry): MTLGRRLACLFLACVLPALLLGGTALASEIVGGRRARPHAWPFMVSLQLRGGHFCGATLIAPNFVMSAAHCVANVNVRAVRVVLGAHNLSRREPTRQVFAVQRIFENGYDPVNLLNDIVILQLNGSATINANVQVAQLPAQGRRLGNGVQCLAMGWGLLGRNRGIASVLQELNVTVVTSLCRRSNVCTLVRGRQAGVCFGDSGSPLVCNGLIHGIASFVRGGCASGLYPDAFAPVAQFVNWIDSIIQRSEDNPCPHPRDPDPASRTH

[8] = target: Tyrosine-protein kinase Fyn (Homo sapiens, UniProt P06241); assay: biochemical; type: cell-based, Insect cells
Chain of Tyrosine-protein kinase Fyn (P06241 whole entry): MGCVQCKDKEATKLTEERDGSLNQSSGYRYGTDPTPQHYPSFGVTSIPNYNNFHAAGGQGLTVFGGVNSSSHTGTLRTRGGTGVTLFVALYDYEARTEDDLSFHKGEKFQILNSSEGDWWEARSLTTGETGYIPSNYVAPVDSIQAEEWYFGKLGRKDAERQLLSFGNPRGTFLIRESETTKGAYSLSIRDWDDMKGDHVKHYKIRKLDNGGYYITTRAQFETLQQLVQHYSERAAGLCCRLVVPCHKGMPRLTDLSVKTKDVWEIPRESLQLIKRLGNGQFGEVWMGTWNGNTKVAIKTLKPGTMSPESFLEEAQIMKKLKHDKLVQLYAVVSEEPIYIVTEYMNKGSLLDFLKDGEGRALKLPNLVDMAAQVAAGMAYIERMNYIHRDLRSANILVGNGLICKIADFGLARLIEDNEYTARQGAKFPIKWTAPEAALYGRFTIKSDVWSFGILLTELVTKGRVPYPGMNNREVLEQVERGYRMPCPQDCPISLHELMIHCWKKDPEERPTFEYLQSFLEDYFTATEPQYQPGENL

[9] = target: Tyrosine-protein kinase Lck (Homo sapiens, UniProt P06239); assay: DRUGMATRIX: Protein Tyrosine Kinase, LCK enzyme inhibition (substrate: Poly(Glu:Tyr)); type: cell-based, Insect cells; conditions: Not Active = under 50% inhibition at 10 µM
Chain of Tyrosine-protein kinase Lck (P06239 whole entry): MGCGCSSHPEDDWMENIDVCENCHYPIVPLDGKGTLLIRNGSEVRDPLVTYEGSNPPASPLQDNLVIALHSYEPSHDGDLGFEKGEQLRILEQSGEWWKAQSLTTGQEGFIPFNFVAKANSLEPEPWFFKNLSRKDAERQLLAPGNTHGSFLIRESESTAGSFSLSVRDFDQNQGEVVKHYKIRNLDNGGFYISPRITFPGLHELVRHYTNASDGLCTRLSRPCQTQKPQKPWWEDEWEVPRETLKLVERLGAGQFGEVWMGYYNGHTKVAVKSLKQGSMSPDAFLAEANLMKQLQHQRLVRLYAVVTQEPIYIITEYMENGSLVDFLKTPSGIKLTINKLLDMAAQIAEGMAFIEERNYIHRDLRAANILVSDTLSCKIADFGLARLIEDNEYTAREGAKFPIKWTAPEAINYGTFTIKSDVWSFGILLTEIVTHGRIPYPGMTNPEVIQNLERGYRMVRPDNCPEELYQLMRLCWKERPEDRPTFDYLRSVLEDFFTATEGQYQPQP

Cytochrome P450 2E1 = Cytochrome P450 2E1 (Homo sapiens, UniProt P05181); conditions: bti-tn-5b1-4; note: in other assays of this panel Not Active means under 50% inhibition at 10 µM
Chain of Cytochrome P450 2E1 (P05181 whole entry): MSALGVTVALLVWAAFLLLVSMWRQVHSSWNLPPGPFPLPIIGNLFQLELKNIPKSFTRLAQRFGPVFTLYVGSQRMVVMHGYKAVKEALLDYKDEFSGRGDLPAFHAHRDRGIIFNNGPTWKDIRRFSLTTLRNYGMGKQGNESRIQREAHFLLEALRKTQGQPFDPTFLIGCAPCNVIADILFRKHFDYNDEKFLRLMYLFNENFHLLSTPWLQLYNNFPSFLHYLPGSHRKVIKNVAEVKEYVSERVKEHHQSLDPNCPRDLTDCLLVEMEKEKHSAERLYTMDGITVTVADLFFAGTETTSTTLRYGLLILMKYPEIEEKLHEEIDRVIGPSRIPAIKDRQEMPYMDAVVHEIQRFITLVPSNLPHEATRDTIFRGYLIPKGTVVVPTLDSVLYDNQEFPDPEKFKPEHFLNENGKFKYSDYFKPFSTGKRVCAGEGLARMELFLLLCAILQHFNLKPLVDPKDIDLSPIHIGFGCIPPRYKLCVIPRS

Row | SMILES | IC50 [1] | Ki [1] | IC50 (Calcitonin receptor) | IC50 [2] | IC50 (Substance-P receptor) | IC50 (Substance-K receptor; cho) | IC50 (Carbonic anhydrase 2) | IC50 [3] | IC50 [4] | Ki [4] | IC50 [5] | Ki [5] | IC50 [6] | Ki [6] | IC50 [7] | IC50 (Neutrophil elastase) | IC50 ([8]; insect cells) | IC50 ([9]; insect cells) | IC50 (Cytochrome P450 2E1) | Ki (Cytochrome P450 2E1) | further results
1 | O=[N+]([O-])c1cc([As](=O)(O)O)ccc1O [ROXARSONE] | Not Active | Not Active | Not Active | Not Active | Not Active | Not Active | Not Active | Not Active | Not Active | Not Active | Not Active | Not Active | Not Active | Not Active | Not Active | Not Active | Not Active | Not Active | Not Active | Not Active | Ki (Calcitonin receptor): Not Active; Ki [2]: Not Active; Ki (Substance-P receptor): Not Active; Ki (Substance-K receptor; cho): Not Active; Ki (Carbonic anhydrase 2): Not Active; Ki [3]: Not Active; Ki [7]: Not Active; Ki (Neutrophil elastase): Not Active; Ki ([8]; insect cells): Not Active; Ki ([9]; insect cells): Not Active
2 | CC(C)(C)NC(=O)[C@@H]1CN(Cc2cccnc2)CCN1C[C@@H](O)C[C@@H](Cc1ccccc1)C(=O)N[C@H]1c2ccccc2C[C@H]1O.O | Not Active | Not Active | Not Active | Not Active | Not Active | – | Not Active | Not Active | Not Active | Not Active | Not Active | Not Active | Not Active | Not Active | Not Active | Not Active | Not Active | Not Active | Not Active | Not Active | IC50 (Substance-K receptor; read-out: IC50): 5100 nM; Ki (Substance-K receptor; read-out: Ki): 1700 nM
3 | Cc1ncc([N+](=O)[O-])n1CC(C)O (stereo unspecified) [SECNIDAZOLE] | Not Active | Not Active | Not Active | Not Active | Not Active | Not Active | Not Active | Not Active | Not Active | Not Active | Not Active | Not Active | Not Active | Not Active | Not Active | Not Active | Not Active | Not Active | Not Active | Not Active | –
4 | Oc1c(I)cc(I)c2cccnc12 [IODOQUINOL] | Not Active | Not Active | Not Active | Not Active | Not Active | Not Active | Not Active | Not Active | Not Active | Not Active | Not Active | Not Active | Not Active | Not Active | Not Active | Not Active | – | – | Not Active | Not Active | IC50 ([8]; read-out: IC50): 1570 nM; IC50 ([9]; read-out: IC50): 2460 nM
5 | NNC(=O)c1ccncc1 [ISONIAZID] | Not Active | Not Active | Not Active | Not Active | Not Active | Not Active | Not Active | Not Active | Not Active | Not Active | Not Active | Not Active | Not Active | Not Active | Not Active | Not Active | Not Active | Not Active | Not Active | Not Active | –
